These results are taken from ChEMBL document CHEMBL1123690, “Redox chemistry of the 9-anilinoacridine class of antitumor agents” (J Med Chem, 1987).

Each structure is given as a SMILES string.

In one assay the test system is L1210. The assay is described as follows: Dose of the drug (mol /kg) providing a 50% life extension in L1210 assays when given at qd 1-5 schedule. The assay is classed as functional, Mus musculus.
Settings: not given
For `COP(=O)(Nc1ccc(Nc2c3ccccc3nc3ccccc23)cc1)OC`, the “Log 1/D50” value came to 4.46.

The next assay relates to L1210. In words: Inhibitory concentration to reduce the growth of L1210 cells by 50% after 70 hr. Format: functional, cell-based. The following applies: Mus musculus, L1210, 70 h.
For the compound `Oc1ccc(Nc2c3ccccc3nc3ccccc23)cc1`, half-maximal inhibition (IC50) required 250 nM.

Turning to `CS(=O)(=O)Nc1ccc(Nc2c3ccccc3nc3ccccc23)cc1`, half-maximal inhibition (IC50) was put at 35 nM. Consider `CN(C)c1ccc(Nc2c3ccccc3nc3ccccc23)cc1`, for which half-maximal inhibition (IC50) required 600 nM. As for `O=S(=O)(Nc1ccc(Nc2c3ccccc3nc3ccccc23)cc1)c1ccccc1`, the IC50 (usually the concentration that gives 50% inhibition) came out at 3.5 nM. For `CNc1ccc(Nc2c3ccccc3nc3ccccc23)cc1`, half-maximal inhibition (IC50) required 180 nM.

Compound `COC(=O)Nc1ccc(Nc2c3ccccc3nc3ccccc23)cc1` returned an IC50 of 60 nM. `CCNc1ccc(Nc2c3ccccc3nc3ccccc23)cc1` yielded an IC50 of 250 nM. The same measure, in the same setting: under `Nc1ccc(Nc2c3ccccc3nc3ccccc23)cc1` stands 350 nM; under `COP(=O)(Nc1ccc(Nc2c3ccccc3nc3ccccc23)cc1)OC`, 15 nM; under `CC(=O)Nc1ccc(Nc2c3ccccc3nc3ccccc23)cc1`, 100 nM.

`O=C(Nc1ccc(Nc2c3ccccc3nc3ccccc23)cc1)c1ccccc1` returned an IC50 of 20 nM.
